From US11702404B2, “GLP-1R modulating compounds” (priority 2019, dated 2023)
Where two headings read alike, the source gives them in different places.

Legend:
[1] = target: GLP-1R (Homo sapiens, UniProt P43220); assay: GLP-1R activation: cAMP increase in CHO cells stably expressing GLP-1R; type: cell-based
[2] = Microsomal stability, human liver microsomes (predicted hepatic clearance); details: predicted from in vitro microsomal stability data
[3] = cAMP increase, CHO cells stably expressing GLP-1R, 10 point dose response, 30 minutes incubation, read-out: EC50

Chain of GLP-1R (P43220 24-463): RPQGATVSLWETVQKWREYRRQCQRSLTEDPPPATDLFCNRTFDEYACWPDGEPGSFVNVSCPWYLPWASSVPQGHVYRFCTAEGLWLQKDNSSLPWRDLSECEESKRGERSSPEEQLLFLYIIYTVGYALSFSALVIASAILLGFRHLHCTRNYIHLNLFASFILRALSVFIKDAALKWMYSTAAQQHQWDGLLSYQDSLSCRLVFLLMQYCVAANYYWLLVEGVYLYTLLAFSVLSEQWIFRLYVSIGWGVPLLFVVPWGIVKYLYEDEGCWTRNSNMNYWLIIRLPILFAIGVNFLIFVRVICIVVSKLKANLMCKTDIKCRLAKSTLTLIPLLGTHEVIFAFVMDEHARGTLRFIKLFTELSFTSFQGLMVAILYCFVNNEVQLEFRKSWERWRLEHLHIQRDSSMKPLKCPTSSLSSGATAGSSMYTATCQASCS

| SMILES | EC50 [1, 3] [nM] | Predicted Hepatic Clearance (Pred. Cl.) [2] [mL/min/kg] | EC50 ([1]; EC50 (nM)) [nM] | EC50 ([1]; read-out: EC50) [nM] |
| --- | --- | --- | --- | --- |
| N#Cc1ccc(COc2cccc(-c3ccc(Cc4nc5ccc(C(=O)O)cc5n4Cc4cncn4C4CC4)c(F)c3)n2)c(F)c1 [Example 7, 2-(4-(6-((4-cyano-2-fluorobenzyl)oxy)pyridin-2-yl)-2-fluorobenzyl)-1-((1-cyclopropyl-1H-imidazol-5-yl)methyl)-1H-benzo[d]imidazole-6-carboxylic acid] | 6.34 | 5.17 |  |  |
| N#Cc1ccc(COc2cccc(-c3cc(F)c(Cc4nc5ccc(C(=O)O)cc5n4C4CCCOC4)cc3F)n2)c(F)c1 (stereo not drawn) [Example 838] | 3.6 | 4.33 |  |  |
| CC1(C)CC(Cn2c(Cc3ccc(-c4cccc(OCc5ccc(C#N)cc5F)n4)cc3F)nc3ccc(C(=O)O)cc32)O1 (stereo not drawn) [Example 263, 2-(4-(6-((4-cyano-2-fluorobenzyl)oxy)pyridin-2-yl)-2-fluorobenzyl)-1-((4,4-dimethyloxetan-2-yl)methyl)-1H-benzo[d]imidazole-6-carboxylic acid] | 91.7 | 7 |  |  |
| COCCn1c(Cc2ccc(-c3cccc(OCc4csc(C#N)c4)n3)cc2F)nc2ccc(C(=O)O)cc21 [Example 235, 2-(4-(6-((5-cyanothiophen-3-yl)methoxy)pyridin-2-yl)-2-fluorobenzyl)-1-(2-methoxyethyl)-1H-benzo[d]imidazole-6-carboxylic acid] | 317 | 8.42 |  |  |
| COCCn1c(Cc2ccc(-c3cccc(OCc4ccc(C#N)cc4F)n3)c(F)c2C#N)nc2ccc(C(=O)O)cc21 [Example 391, 2-(2-cyano-4-(6-((4-cyano-2-fluorobenzyl)oxy)pyridin-2-yl)-3-fluorobenzyl)-1-(2-methoxyethyl)-1H-benzo[d]imidazole-6-carboxylic acid] | ≥ 1000 | 5.42 |  |  |
| COCCn1c(Cc2cc(F)c(-c3cccc(OCc4ccc(C#N)cc4F)n3)cc2F)nc2ccc(C(=O)O)c(F)c21 [Example 309, 2-(4-(6-((4-cyano-2-fluorobenzyl)oxy)pyridin-2-yl)-2,5-difluorobenzyl)-7-fluoro-1-(2-methoxyethyl)-1H-benzo[d]imidazole-6-carboxylic acid] | 2.16 | 5.17 |  |  |
| [2H]C([2H])(Oc1cccc(-c2cc(F)c(Cc3nc4ccc(C(=O)O)cc4n3CCOC)cc2F)n1)c1ccc(C#N)cc1F [Example 543, 2-(4-(6-((4-cyano-2-fluorophenyl)methoxy-d2)pyridin-2-yl)-2,5-difluorobenzyl)-1-(2-methoxyethyl)-1H-benzo[d]imidazole-6-carboxylic acid] | 1.51 | 4.67 |  |  |
| COCCn1c(Cc2cc(F)c(-c3cccc(OCc4ccc(C#N)cc4F)n3)cc2F)nc2c(F)cc(C(=O)O)cc21 [Example 301, 2-(4-(6-((4-cyano-2-fluorobenzyl)oxy)pyridin-2-yl)-2,5-difluorobenzyl)-4-fluoro-1-(2-methoxyethyl)-1H-benzo[d]imidazole-6-carboxylic acid] |  | 5.05 | 0.73 |  |
| N#Cc1ccc(COc2ncc(F)c(-c3ccc(Cc4nc5c(F)cc(C(=O)O)cc5n4C[C@@H]4CCO4)cc3F)n2)c(F)c1 [Example 881] | 0.29 | 8.83 |  |  |
| COCCn1c(Cc2cc(F)c(-c3ccnc(OCc4ccc(C(F)F)cc4F)n3)cc2F)nc2c(F)cc(C(=O)O)cc21 [Example 672] | 0.58 | 1.83 |  |  |
| COCCn1c(Cc2ccc(-c3cccc(OCc4cccn(C)c4=O)n3)cc2F)nc2ccc(C(=O)O)cc21 [Example 374, 2-(2-fluoro-4-(6-((1-methyl-2-oxo-1,2-dihydropyridin-3-yl)methoxy)pyridin-2-yl)benzyl)-1-(2-methoxyethyl)-1H-benzo[d]imidazole-6-carboxylic acid] | 1930 | 6.5 |  |  |
| CO[C@H]1CC[C@@H]1n1c(Cc2cc(F)c(-c3cccc(OCc4ccc(C#N)cc4F)n3)cc2F)nc2ccc(C(=O)O)cc21 [Example 701] | 145 | 3.83 |  |  |
| COCCn1c(Cc2ccc(-c3cccc(OCc4cccc(=O)n4C)n3)cc2F)nc2ccc(C(=O)O)cc21 [Example 373, 2-(2-fluoro-4-(6-((1-methyl-6-oxo-1,6-dihydropyridin-2-yl)methoxy)pyridin-2-yl)benzyl)-1-(2-methoxyethyl)-1H-benzo[d]imidazole-6-carboxylic acid] | 4770 | 19.5 |  |  |
| N#Cc1ccc(COc2ccnc(-c3ccc(Cc4nc5ccc(C(=O)O)cc5n4C[C@@H]4CCO4)cc3F)n2)c(F)c1 [Example 777] | 0.73 | 4.5 |  |  |
| N#Cc1ccc(COc2cccc(-c3cc(F)c(Cc4nc5ccc(C(=O)O)cc5n4CC4(n5cncn5)CC4)cc3F)n2)c(F)c1 [Example 274, 1-((1-(1H-1,2,4-triazol-1-yl)cyclopropyl)methyl)-2-(4-(6-((4-cyano-2-fluorobenzyl)oxy)pyridin-2-yl)-2,5-difluorobenzyl)-1H-benzo[d]imidazole-6-carboxylic acid] | 0.23 | 8 |  |  |
| COCCn1c(Cc2cc(F)c(-c3cccc(OCc4ccn(-c5ccccc5)n4)n3)cc2F)nc2ccc(C(=O)O)cc21 [Example 694] | 41.7 | 1.83 |  |  |
| COCCn1c(Cc2cc(F)c(-c3cccc(OCc4ccc(C(F)F)nc4)n3)cc2F)nc2ccc(C(=O)O)cc21 [Example 860] | 22.6 | 1.83 |  |  |
| O=C(O)c1cc(F)c2nc(Cc3cc(F)c(-c4cccc(OCc5ccc(C(F)F)cc5F)n4)cc3F)n(CC34CC(CO3)C4)c2c1 [Example 669] | 0.28 | 1.83 |  |  |
| CC(=O)NCCn1c(Cc2ccc(-c3cccc(OCc4ccc(C#N)cc4F)n3)cc2F)nc2ccc(C(=O)O)cc21 [Example 485, 1-(2-acetamidoethyl)-2-(4-(6-((4-cyano-2-fluorobenzyl)oxy)pyridin-2-yl)-2-fluorobenzyl)-1H-benzo[d]imidazole-6-carboxylic acid] |  | 3.67 |  | 103 |
| CN(C)CC1(Cn2c(Cc3ccc(-c4cccc(OCc5ccc(C#N)cc5F)n4)cc3F)nc3ccc(C(=O)O)cc32)CC1 [Example 290, 2-(4-(6-((4-cyano-2-fluorobenzyl)oxy)pyridin-2-yl)-2-fluorobenzyl)-1-((1-((dimethylamino)methyl)cyclopropyl)methyl)-1H-benzo[d]imidazole-6-carboxylic acid] | 62.3 | 8.42 |  |  |
| N#Cc1ccc(COc2ccnc(-c3cc(F)c(Cc4nc5ccc(C(=O)O)cc5n4C[C@@H]4CCO4)cc3F)n2)c(F)c1 [Example 451, (S)-2-(4-(4-((4-cyano-2-fluorobenzyl)oxy)pyrimidin-2-yl)-2,5-difluorobenzyl)-1-(oxetan-2-ylmethyl)-1H-benzo[d]imidazole-6-carboxylic acid] | 0.16 | 4.83 |  |  |
| COCCn1c(Cc2cc(F)c(-c3cccc(OCc4cc(F)c(C#N)cc4F)n3)cc2F)nc2ccc(C(=O)O)cc21 [Example 565, 2-(4-(6-((4-cyano-2,5-difluorobenzyl)oxy)pyridin-2-yl)-2,5-difluorobenzyl)-1-(2-methoxyethyl)-1H-benzo[d]imidazole-6-carboxylic acid] | 4.91 | 6 |  |  |
| COCCn1c(Cc2ccc(-c3cccc(OCc4ccc(C#N)cc4F)n3)cc2C#CC2(CO)CC2)nc2ccc(C(=O)O)cc21 [Example 240, 2-(4-(6-((4-cyano-2-fluorobenzyl)oxy)pyridin-2-yl)-2-((1-(hydroxymethyl)cyclopropyl)ethynyl)benzyl)-1-(2-methoxyethyl)-1H-benzo[d]imidazole-6-carboxylic acid] | 6.82 | 13.7 |  |  |
| CNC(=O)C(Cn1c(Cc2ccc(-c3cccc(OCc4ccc(C#N)cc4F)n3)cc2F)nc2ccc(C(=O)O)cc21)OC (single isomer, unassigned) [Example 330, 2-(4-(6-((4-cyano-2-fluorobenzyl)oxy)pyridin-2-yl)-2-fluorobenzyl)-1-(2-methoxy-3-(methylamino)-3-oxopropyl)-1H-benzo[d]imidazole-6-carboxylic acid] | 17.2 | 3.17 |  |  |
| O=C(O)c1ccc2nc(Cc3ccc(-c4cccc(OCc5ccc(Cl)nc5)n4)c(F)c3)n(C[C@@H]3CCO3)c2c1 [Example 806] | 0.54 | 7.17 |  |  |
| CS(=O)(=O)N1CCC[C@@H]1Cn1c(Cc2cc(F)c(-c3cccc(OCc4ccc(C#N)cc4F)n3)cc2F)nc2ccc(C(=O)O)cc21 [Example 735] |  | 7.17 |  | 1.7 |
| Cn1c(Cc2ccc(-c3cccc(OCc4ccc(C#N)cc4F)n3)cc2F)nc2ccc(C(=O)O)cc21 [Example 354, 2-(4-(6-((4-cyano-2-fluorobenzyl)oxy)pyridin-2-yl)-2-fluorobenzyl)-1-methyl-1H-benzo[d]imidazole-6-carboxylic acid] | 146 | 7.5 |  |  |
| N#Cc1ccc(COc2cccc(-c3cc(F)c(Cc4nc5ccc(C(=O)O)cc5n4CC45COCC4C5(F)F)cc3F)n2)c(F)c1 (stereo not drawn) [Example 703] | 1.01 | 5.67 |  |  |
| N#Cc1ccc(COc2cccc(-c3cc(F)c(Cc4nc5ccc(C(=O)O)cc5n4CCNc4ccccn4)cc3F)n2)c(F)c1 [Example 835] |  | 11.2 |  | 515 |
| COCCn1c(Cc2ccc(-c3cccc(OCc4ccc(C#N)cc4F)n3)cc2F)nc2c(F)cc(C(=O)O)cc21 [Example 285, 2-(4-(6-((4-cyano-2-fluorobenzyl)oxy)pyridin-2-yl)-2-fluorobenzyl)-4-fluoro-1-(2-methoxyethyl)-1H-benzo[d]imidazole-6-carboxylic acid] | 2.19 | <1.83 |  |  |
